IC50 and Stability data for 4 compounds are collected here from ChEMBL document CHEMBL1144754, “Formation of fluorine-18 labeled diaryl ureas--labeled VEGFR-2/PDGFR dual inhibitors as molecular imaging agents for angiogenesis” (Bioorg Med Chem, 2008).

Series [1] in a line: Inhibition of VEGFR expressed in PAE cells by Western blot analysis. It counts as cell-based. In general terms: Immunoblotting shows a protein as a band on a membrane.
Series [2] in a line: Inhibition of PDGFR expressed in NIH cells by Western blot analysis. It is filed as cell-based.
In series [3] the target is Epidermal growth factor receptor (Homo sapiens, UniProt P00533). The series can be described thus: Inhibition of EGFR expressed in DHER14 cells by Western blot analysis. It counts as cell-based.
The target in series [4] is Receptor tyrosine-protein kinase erbB-2 (Homo sapiens, UniProt P04626). The series can be described thus: Inhibition of Her2 expressed in CSH12 cells by Western blot analysis. It is filed as cell-based.
Series [5] has as its target Insulin-like growth factor 1 receptor (Homo sapiens, UniProt P08069). The experiment in a line: Inhibition of IGF1R by ELISA. (In general: ELISA stands for enzyme-linked immunosorbent assay.)
Series [6] deals with Plasma. The series can be described thus: Ex vivo stability in human plasma assessed as radioactivity at 300 uCi upto 120 hrs. It is filed as ADME, cell-free.

Chain of Epidermal growth factor receptor (P00533 whole entry): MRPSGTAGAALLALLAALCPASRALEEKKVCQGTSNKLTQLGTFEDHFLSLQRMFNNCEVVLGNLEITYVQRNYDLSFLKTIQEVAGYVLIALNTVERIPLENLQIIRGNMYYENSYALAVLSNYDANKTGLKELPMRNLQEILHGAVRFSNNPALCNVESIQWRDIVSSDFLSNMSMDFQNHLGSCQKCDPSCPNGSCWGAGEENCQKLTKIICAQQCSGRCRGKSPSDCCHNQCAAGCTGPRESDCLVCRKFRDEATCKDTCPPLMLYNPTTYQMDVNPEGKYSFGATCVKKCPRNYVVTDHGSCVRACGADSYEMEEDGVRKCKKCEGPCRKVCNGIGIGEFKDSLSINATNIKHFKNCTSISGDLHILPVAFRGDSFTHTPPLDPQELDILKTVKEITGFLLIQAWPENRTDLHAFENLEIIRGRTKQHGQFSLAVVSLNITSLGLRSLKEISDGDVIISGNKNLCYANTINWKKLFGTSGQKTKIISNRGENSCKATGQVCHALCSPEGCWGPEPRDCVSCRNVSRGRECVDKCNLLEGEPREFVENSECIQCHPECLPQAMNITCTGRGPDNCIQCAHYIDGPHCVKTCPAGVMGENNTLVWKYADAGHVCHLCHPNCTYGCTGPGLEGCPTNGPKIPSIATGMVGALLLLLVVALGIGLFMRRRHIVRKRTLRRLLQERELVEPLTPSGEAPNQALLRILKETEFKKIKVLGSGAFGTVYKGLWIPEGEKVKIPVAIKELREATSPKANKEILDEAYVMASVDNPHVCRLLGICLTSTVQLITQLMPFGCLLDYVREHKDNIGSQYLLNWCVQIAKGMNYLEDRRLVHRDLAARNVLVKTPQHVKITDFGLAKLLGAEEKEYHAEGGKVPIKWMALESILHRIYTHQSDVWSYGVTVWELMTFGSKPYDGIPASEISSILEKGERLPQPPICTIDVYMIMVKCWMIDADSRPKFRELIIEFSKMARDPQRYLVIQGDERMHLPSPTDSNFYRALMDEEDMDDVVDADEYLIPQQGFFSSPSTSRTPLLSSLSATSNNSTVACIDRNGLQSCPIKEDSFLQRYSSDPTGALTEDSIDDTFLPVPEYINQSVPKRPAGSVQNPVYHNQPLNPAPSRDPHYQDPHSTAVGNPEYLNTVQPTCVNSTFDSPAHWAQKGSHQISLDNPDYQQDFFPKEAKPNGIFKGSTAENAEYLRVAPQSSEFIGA
Chain of Receptor tyrosine-protein kinase erbB-2 (P04626 whole entry): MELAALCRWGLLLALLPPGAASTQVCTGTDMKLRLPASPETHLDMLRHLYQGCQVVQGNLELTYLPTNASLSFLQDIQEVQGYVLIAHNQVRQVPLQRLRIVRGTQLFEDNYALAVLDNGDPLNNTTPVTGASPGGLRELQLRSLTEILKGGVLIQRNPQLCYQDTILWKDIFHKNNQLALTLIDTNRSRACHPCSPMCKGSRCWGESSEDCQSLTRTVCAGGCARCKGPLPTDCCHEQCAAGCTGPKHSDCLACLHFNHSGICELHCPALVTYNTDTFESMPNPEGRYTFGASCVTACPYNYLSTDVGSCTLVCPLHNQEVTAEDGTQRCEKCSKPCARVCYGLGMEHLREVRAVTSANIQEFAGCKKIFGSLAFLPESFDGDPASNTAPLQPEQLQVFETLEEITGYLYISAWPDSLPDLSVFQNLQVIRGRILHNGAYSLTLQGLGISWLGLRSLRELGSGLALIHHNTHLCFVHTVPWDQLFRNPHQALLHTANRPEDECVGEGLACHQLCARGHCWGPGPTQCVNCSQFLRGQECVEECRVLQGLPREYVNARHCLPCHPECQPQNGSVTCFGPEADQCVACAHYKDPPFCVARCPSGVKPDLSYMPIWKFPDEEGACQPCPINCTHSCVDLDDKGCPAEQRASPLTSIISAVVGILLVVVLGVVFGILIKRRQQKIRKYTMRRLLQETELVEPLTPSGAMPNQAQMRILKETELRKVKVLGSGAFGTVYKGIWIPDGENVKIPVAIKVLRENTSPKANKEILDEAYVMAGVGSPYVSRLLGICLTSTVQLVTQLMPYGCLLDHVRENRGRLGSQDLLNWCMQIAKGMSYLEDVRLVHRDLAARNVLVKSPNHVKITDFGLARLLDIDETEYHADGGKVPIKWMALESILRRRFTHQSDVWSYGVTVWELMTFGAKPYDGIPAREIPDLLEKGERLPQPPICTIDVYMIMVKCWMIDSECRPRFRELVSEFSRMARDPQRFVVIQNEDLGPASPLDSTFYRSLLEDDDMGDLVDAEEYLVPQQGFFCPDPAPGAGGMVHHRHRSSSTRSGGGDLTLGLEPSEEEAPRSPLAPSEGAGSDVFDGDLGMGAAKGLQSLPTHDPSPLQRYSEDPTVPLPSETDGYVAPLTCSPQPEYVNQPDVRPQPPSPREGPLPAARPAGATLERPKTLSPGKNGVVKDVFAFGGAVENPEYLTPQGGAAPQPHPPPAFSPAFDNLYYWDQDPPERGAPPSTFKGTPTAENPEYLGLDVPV
Chain of Insulin-like growth factor 1 receptor (P08069 31-736 limits assumed): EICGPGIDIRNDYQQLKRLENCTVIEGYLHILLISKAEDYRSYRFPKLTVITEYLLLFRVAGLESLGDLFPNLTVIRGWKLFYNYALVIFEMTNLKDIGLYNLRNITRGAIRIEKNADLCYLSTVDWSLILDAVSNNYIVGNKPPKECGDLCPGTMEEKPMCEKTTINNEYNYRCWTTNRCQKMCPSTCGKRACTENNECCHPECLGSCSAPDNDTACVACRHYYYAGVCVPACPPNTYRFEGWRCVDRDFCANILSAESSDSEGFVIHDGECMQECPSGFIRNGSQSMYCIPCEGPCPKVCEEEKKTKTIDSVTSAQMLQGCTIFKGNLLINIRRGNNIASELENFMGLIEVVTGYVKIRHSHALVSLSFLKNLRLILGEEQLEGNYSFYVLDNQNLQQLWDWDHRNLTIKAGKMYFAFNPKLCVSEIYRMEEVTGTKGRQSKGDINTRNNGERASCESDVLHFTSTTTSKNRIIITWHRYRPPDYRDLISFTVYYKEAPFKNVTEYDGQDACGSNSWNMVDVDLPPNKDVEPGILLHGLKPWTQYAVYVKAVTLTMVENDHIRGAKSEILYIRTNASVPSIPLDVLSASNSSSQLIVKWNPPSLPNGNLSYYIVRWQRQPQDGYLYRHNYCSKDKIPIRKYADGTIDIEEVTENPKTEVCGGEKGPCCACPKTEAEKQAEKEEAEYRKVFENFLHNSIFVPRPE
Chain of Insulin-like growth factor 1 receptor (P08069 741-1367 limits assumed): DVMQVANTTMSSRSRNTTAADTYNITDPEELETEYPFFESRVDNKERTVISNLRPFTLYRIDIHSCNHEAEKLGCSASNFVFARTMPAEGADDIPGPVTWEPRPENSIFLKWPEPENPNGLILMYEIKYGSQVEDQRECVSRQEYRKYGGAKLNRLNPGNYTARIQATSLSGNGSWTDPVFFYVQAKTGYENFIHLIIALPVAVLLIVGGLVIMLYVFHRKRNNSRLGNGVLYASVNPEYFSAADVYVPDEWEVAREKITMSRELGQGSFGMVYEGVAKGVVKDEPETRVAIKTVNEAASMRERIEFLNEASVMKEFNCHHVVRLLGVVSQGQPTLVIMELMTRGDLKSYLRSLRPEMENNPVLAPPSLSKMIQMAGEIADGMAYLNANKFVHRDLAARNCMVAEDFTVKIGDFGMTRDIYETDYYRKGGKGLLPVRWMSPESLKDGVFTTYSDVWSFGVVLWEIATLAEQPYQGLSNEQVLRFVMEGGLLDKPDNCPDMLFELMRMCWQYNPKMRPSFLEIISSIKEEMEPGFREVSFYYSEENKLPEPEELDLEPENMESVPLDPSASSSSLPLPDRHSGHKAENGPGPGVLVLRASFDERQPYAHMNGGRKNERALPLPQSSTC

On to `COc1cc2nccc(Oc3ccc(NC(=O)Nc4ccccc4F)cc3F)c2cc1OC`, for which the IC50 in series [1] was 4 nM; in series [2], 2 nM; in series [3], more than 500 nM; in series [4], more than 500 nM; in series [5], more than 2000 nM.
Consider `COc1cc2nccc(Oc3ccc(NC(=O)Nc4ccc(F)cc4F)cc3F)c2cc1OC`, for which the IC50 was 2 nM in series [2], more than 500 nM in series [3], more than 500 nM in series [4] and more than 2000 nM in series [5].
Consider `COc1cc2nccc(Oc3ccc(NC(=O)Nc4ccc(F)cc4)cc3F)c2cc1OC`, for which the IC50 was 8 nM in series [1]; 2 nM in series [2]; more than 500 nM in series [3]; more than 500 nM in series [4]; more than 2000 nM in series [5].
Regarding `COc1cc2nccc(Oc3ccc(NC(=O)Nc4ccc([18F])cc4)cc3F)c2cc1OC`, the Stability entry in series [6] is reported as “Stable”.

The term IC50 denotes the point on the concentration scale where inhibition reaches its midpoint. Low values mean higher potency, high ones lower potency.
